The values that follow come from US5498601A, “Platelet aggregation-inhibiting peptides” (Nippon Steel Corporation, priority 1992, dated 1996).

Data set [1] in a line: stability of the synthetic peptides in human plasma. As to conditions: 37° C., peptide 100 μM; for half-life at 100 μM: male, read-out: Half-Time of the synthetic peptides in plasma. The format is in vitro ADME. On the procedure: The blood sample thus prepared was examined for the stability in whole blood. […] Then, the supernatant was collected to obtain a plasma fraction. This plasma fraction was examined for the stability in plasma.
The whole blood or plasma (225 μl) was placed in a test tube and heated to 37° C. Each of the synthetic peptides was dissolved in saline (pH 7.4) to prepare a solution at a concentration of 1 mM. Each of the synthetic peptide solutions was added to the whole blood or plasma in an amount of 25 μl (final concentration: 100 μM) and incubated for a certain period of time. After the incubation, the solution was cooled with ice to stop the degradation reaction. The plasma was stored frozen at -20° C. without performing any treatments. The whole blood was centrifuged at 2000 g for 5 minutes at 4° C. and the supernatant was stored frozen.
The samples were analyzed by reversed phase HPLC. The peak area of each synthetic peptide was calculated and the stability in the whole blood or plasma was evaluated from the change of the peak area.

Another data set is described as follows: in vivo. Further details: species or system MCH (ICR) strain mice. As to conditions: male, MCH (ICR), mouse, iv; for half-life: Half-Time of the synthetic peptides in mice. On the procedure: For the evaluation of stability, MCH (ICR) strain mice (male, body weight: 28-32 g) were used. […] After a certain period of time, blood was collected from the abdominal vein using an injection syringe treated with heparin. Immediately after the collection, the blood was centrifuged (1500 g, 3 minutes) at 4° C. and the supernatant was stored frozen at -20° C. Each of the supernatants was analyzed by reversed phase HPLC in the same manner as that in the aforementioned evaluation of stability in plasma.

Another data set concerns platelet aggregation. The data set is described as follows: intravenous injection in beagle, platelet aggregation of PRP measured over time. The format is in vivo. The settings on record: 5 mg/Kg i.v. On the procedure: (1) In order to examine how long the peptides of the present invention and heparin, which is used as an anticoagulant at present, can remain without being broken down or eliminated and how long the activity of them persists, intravenous injection experiments were carried out using beagles.
Since the peptides of the present invention have the platelet aggregation-inhibiting activity, the amount of the peptides which remain in the body of an organism without being broken down can be determined by collecting blood and measuring the platelet aggregation-inhibiting activity of the blood at given intervals of time. Thus, the in vivo stability of the peptides can be estimated.
In the experiments, a male beagle having a body weight of 10 Kg was used. […] The collected blood was centrifuged at 1000 rpm for 10 minutes to prepare platelet-rich plasma (PRP). The reminder was further centrifuged at 3000 rpm for 15 minutes to prepare platelet-poor plasma (PPP).
The platelet aggregation ability was determined by measuring the platelet aggregation of the PRP with collagen and ADP using an aggregometer. In the measurement, ADP was added at a final concentration of 7.5 and 10.0 μM and collagen was added at a final concentration of 7.5 and 10.0 μg/ml.

The next data set relates to blood coagulation. As to the kind of experiment: intravenous heparin in beagle, prothrombin time and activated partial thromboplastin time. As to conditions: 200 U/Kg i.v. The format is in vivo. On the procedure: (2) Heparin, currently used as an anticoagulant, was used as a comparison with the peptides of the present invention.
Therefore, the in vivo stability of heparin was estimated by measuring the time-dependent change in the anticoagulation action which is the main action of heparin.
In the experiments, haparin as dissolved in saline was injected into the vein and blood was collected at given intervals of time to prepare PPP by the same method as that described in (1).
In the measurement of the anticoagulation action, the prepared PPP was used to measure prothrombin time, which is an indicator of blood coagulation activity in vitro, and activated partial thromboplastin time according to a conventional method. Each measurement was conducted under preincubation conditions at 37° C. for 3 minutes using AMELUNG KC-10A (Baxtor CO.). The rate of the disappearance of heparin from the body can be estimated by measuring the prolongations of the prothrombin time and the activated partial thromboplastin time (i.e., the prolongation of time up to coagulation) after the injection.

In a further data set the test system is human platelets. As to the kind of experiment: protection of human platelet fraction during storage. As to conditions: platelet fraction, enzymes present in plasma.

Non-standard residues stand in square brackets, D forms with d. Residues, ends and D or L forms follow the SMILES beside them. No end group written: not given here. *: point of attachment. pGlu = O=C1CC[C@@H](C(=O)O)N1; Pip = O=C(O)[C@@H]1CCCCN1; X2 = O=C(c1cc(O)nc(O)n1)*; Aze = O=C(O)[C@@H]1CCN1

Protocol for human platelets: Immediately after the blood collection, the syringe was stirred gently to mix the blood with the sodium citrate solution. The mixed blood was centrifuged (1100 rpm, 250 g) at room temperature for 15 minutes and the rotation was stopped without applying the brake. Then, the supernatant was collected with a pipette to obtain a platelet fraction. The remaining blood was further centrifuged (3000 rpm, 1000 g). The supernatant was collected to obtain platelet-poor plasma and stored.
The platelet fraction was placed in a polypropylene test tube, which was capped with a membrane filter to ensure breathability. Then, the test tube was placed on a shaker and stored at room temperature while shaking through vibrational amplitude of 20 cm at a frequency of 2 Hz. All the operations were performed under aseptic conditions to prevent the proliferation of bacteria during the storage.
After the storage for a given period of time, an aliquot of the platelet fraction was sampled and the number of platelets was measured. Prostaglandin E1 (Sigma Co.) was added to give a final concentration of 20 μg/ml and centrifuged at 750 g for 10 minutes. The supernatant was removed and the remainder was washed twice with HEPES-Tyrode's buffer containing prostaglandin E1 to remove the protected peptide. Finally, the platelets were suspended in preliminarily stored platelet-poor plasma. After the incubation for a given period of time, the aggregation ability of the platelets was determined by the method described above.

Take “PSRGDW-OH [Example 16, Pro--Ser--Arg--Gly--Asp--Trp--OH]”: in data set [1], the “Half-Time of the synthetic peptides in plasma” value (“Half-Time … in plasma” below) was 74.5 min and the half-life at 100 μM came out at 74.5 min. Besides, the half-life in the data set “in vivo” was ≤ 2 min.

Consider `N=C(N)NCCC[C@H](NC(=O)[C@H](CO)NC(=O)c1cc(O)nc(O)n1)C(=O)NCC(=O)N[C@@H](CC(=O)O)C(=O)N[C@@H](Cc1c[nH]c2ccccc12)C(=O)O` [Example 9, Orotyl--Ser--Arg--Gly--Asp--Trp--OH] (X2-SRGDW-OH), for which, in data set [1], the half-life at 100 μM is ≥ 240 min. Also, the “time within which the peptide was broken down in the body or eliminated from the kidney” value with platelet aggregation was ≤ 60 min. Also, in the data set “in vivo”, the “Half-Time of the synthetic peptides in mice” value is 6.9 min and the half-life was 10.1 min.

Take `N=C(N)NCCC[C@H](NC(=O)[C@H](CO)NC(=O)[C@@H]1CCN1)C(=O)NCC(=O)N[C@@H](CC(=O)O)C(=O)N[C@@H](Cc1c[nH]c2ccccc12)C(=O)O` [Example 17, (L-2-Azetidinecarboxyl)--Ser--Arg--Gly--Asp--Trp--OH] (H-[Aze]SRGDW-OH): in data set [1], the half-life at 100 μM came to 49 min. The same compound registered a half-life in “in vivo” of 3.3 min.

In the case of “WSRGDW-OH [Example 1, Trp--Ser--Arg--Gly--Asp--Trp--OH]”, in data set [1], the “Half-Time … in plasma” value is 11.5 min and the half-life at 100 μM was 11.5 min. Also, the half-life in “in vivo” was ≤ 2 min.

For the compound `N=C(N)NCCC[C@H](NC(=O)[C@H](CO)NC(=O)[C@@H]1CCCCN1)C(=O)NCC(=O)N[C@@H](CC(=O)O)C(=O)N[C@@H](Cc1c[nH]c2ccccc12)C(=O)O` [Example 18, (L-Pipecolinyl)--Ser--Arg--Gly--Asp--Trp--OH] (H-[Pip]SRGDW-OH), in data set [1], the “Half-Time … in plasma” value is “at least 120 minutes” and the half-life at 100 μM is ≥ 120 min. Further, in “in vivo”, the half-life worked out at 3.3 min.

heparin: in the data set with blood coagulation, the “activated partial thromboplastin time” value is reported as “The same results were obtained” and the “time to completely recover prothrombin time to the level before injection” value lay in the range of 2 to 3 h.

On to `N=C(N)NCCC[C@H](N)C(=O)NCC(=O)N[C@@H](CC(=O)O)C(=O)N[C@@H](Cc1ccccc1)C(=O)O` [RGDF, reference compound] (H-RGDF-OH), for which, in the data set with human platelets, the “stability when added to a platelet fraction” value is “broken down in several hours”.

For the compound `N=C(N)NCCC[C@H](NC(=O)[C@H](CO)NC(=O)[C@@H]1CCC(=O)N1)C(=O)NCC(=O)N[C@@H](CC(=O)O)C(=O)N[C@@H](Cc1c[nH]c2ccccc12)C(=O)O` [Example 11, Pyroglutamyl--Ser--Arg--Gly--Asp--Trp--OH] ([pGlu]SRGDW-OH), in data set [1], the half-life at 100 μM was ≥ 240 min.
